The values below come from EP1862549A2, “Target of RNAIII activating protein (TRAP)” (Balaban, Naomi, priority 1998, dated 2007).

Experiment [1] deals with TRAP. The following applies: wild type early exponential S. aureus cells incubated in PFB with 32P; PBS as control.
Description: Wild type early exponential S. aureus cells were incubated for 1 hr in phosphate free buffer (PFB) together with ^32P, with RAP (in PBS) or with PBS only as a control. […] Cells were collected, applied to SDS PAGE, and the gel autoradiographed. The autoradiogram was scanned and the density of the bands determined.
Wild type early exponential S. aureus cells were incubated in PFB with ^32P with either PBS alone, RIP, RAP, or a combination of RIP and RAP. […] The cells were collected, applied to SDS PAGE, the gel autoradiographed, and the relative amounts of TRAP phosphorylation and RNAIII transcription levels determined (Balaban et al. Proc. Natl. Acad. Sci. U.S.A. 92:1619-1623 (1995)). […] The relative levels of TRAP phosphorylation (Fig. 14) and RNAIII transcription (Fig. 15) in the presence of PBS alone (control), RIP, RAP, or RIP and RAP were also determined.
The test system of experiment [2] is S. aureus. The following applies: animals treated with RIP; cited from earlier work.

As for YSPXTNF (SEQ ID NO:3) [RIP], the TRAP phosphorylation result in experiment [1] is recorded as “inhibited”. Moreover, the “protection from an S. aureus infection” value in experiment [2] is on record as “protected”.
